How the values were obtained:
Type in all cases: cell-based
hA3AR = biological target: T1, hA3AR (Homo sapiens, UniProt P0DMS8); assay: Cyclic AMP functional assay at the hA3AR expressed in CHO cells
T1 sequence (P0DMS8 1-318): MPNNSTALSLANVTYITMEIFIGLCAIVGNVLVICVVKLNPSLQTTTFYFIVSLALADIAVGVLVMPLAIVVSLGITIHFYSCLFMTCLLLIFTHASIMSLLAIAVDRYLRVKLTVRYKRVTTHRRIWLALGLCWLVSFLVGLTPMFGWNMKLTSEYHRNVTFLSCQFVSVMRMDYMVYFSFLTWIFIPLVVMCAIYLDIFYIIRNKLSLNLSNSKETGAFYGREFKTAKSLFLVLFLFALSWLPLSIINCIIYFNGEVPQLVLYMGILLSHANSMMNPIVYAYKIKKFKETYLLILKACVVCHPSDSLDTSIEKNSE

hA2AAR = hA2AAR (Homo sapiens, UniProt P29274); assay: Cyclic AMP functional assay at the hA2AAR expressed in CHO cells; conditions: compared to the standard CGS21680
hA2BAR = biological target: T2, hA2BAR (Homo sapiens, UniProt P29275); assay: Cyclic AMP accumulation at the hA2BAR expressed in CHO cells
T2 sequence (P29275 1-332): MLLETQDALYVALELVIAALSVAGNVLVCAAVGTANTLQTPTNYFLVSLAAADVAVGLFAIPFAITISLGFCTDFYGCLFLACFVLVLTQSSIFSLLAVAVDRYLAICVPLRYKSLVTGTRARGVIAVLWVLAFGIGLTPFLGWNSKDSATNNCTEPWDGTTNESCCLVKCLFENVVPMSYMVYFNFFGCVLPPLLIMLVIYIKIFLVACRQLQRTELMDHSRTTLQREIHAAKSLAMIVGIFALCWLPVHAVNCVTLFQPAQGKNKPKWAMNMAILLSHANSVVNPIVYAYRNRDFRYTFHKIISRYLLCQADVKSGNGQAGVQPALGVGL

Sequence of hA2AAR (P29274 whole entry): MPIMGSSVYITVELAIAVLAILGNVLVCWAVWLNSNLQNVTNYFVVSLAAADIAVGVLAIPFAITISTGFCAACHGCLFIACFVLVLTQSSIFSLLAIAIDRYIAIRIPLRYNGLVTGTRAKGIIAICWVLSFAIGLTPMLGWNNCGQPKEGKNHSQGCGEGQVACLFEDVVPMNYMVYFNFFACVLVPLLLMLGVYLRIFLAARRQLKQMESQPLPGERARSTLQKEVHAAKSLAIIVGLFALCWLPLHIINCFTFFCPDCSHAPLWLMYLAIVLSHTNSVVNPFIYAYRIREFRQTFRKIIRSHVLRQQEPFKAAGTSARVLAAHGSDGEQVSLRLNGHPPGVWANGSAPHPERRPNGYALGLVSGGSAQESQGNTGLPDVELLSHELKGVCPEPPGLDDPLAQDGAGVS

Functional behaviour at the hA3AR (cyclic AMP assay) (hA3AR) | Functional behaviour at the hA2AAR (cyclic AMP assay) (hA2AAR) | Functional behaviour at the hA2BAR (cyclic AMP accumulation) (hA2BAR) | Structure (SMILES)
potent and full antagonists | full agonist | weak partial agonist | CCCCC#Cc1nc(N)c2ncn([C@@H]3SC[C@@H](O)[C@H]3O)c2n1 [Compound 4a]
potent and full antagonists | – | – | CCCC/C=C/c1nc(N)c2ncn([C@@H]3SC[C@@H](O)[C@H]3O)c2n1 [Compound 4b]
